Source: patent US9879024B2, “Crystal forms of (R)-N-methylnaltrexone bromide and uses thereof” (Progenics Pharmaceuticals, Inc., priority 2007, dated 2018)

Tests used:
Type in all cases: physicochemical
[1] = Water solubility of amorphous Compound 1; details: qualitative statement, no data given
[2] = Solubility of Form A at 37° C. under conditions that simulate the human GI tract (HPLC of filtrate); details: thermodynamic from solid, 37° C. overnight
Method: […] All solutions were stored overnight in a 37° C. oven, and then filtered through a Whatman 0.45 μm nylon syringe filter to remove insoluble material.

[3] = Equilibrium solubility of Form A at room temperature in solvents and aqueous buffers; details: thermodynamic from solid, read-out: Solubility at R.T.
Method: In each case, the equilibrium solubility of Form A at room temperature was measured by placing the compound in excess into different solvents and stirring overnight at ambient room temperature, protected from light. Solubility in the following solvents and aqueous buffers was evaluated at room temperature: methanol, ethanol, benzyl alcohol, dimethyl sulfoxide, water for injection, bacteriostatic water (containing 0.9% benzyl alcohol), 5% dextrose, normal saline (0.9% NaCl), pH 1.1 (glycine HCl), pH 4.2 (glycine HCl), pH 7.1 (phosphate buffer), and pH 9.1 (glycine). Solubilities are reported to the nearest mg/mL unless otherwise stated.

Row | Compound | water solubility [1] | solubility ([2]; aqueous buffer, pH 4.5 (acetate buffer)) [mg/mL] | solubility ([2]; aqueous buffer, pH 6.8 (phosphate buffer)) [mg/mL] | solubility ([2]; aqueous buffer, pH 9.0 (borate buffer)) [mg/mL] | solubility ([2]; pH 1, simulated gastric fluid, 0.1N HCl) [mg/mL] | solubility ([3]; aqueous buffer, pH 4.2 (glycine HCl buffer)) [mg/mL] | solubility ([3]; aqueous buffer, pH 7.1 (phosphate buffer)) [mg/mL] | solubility ([3]; aqueous buffer, pH 9.1 (glycine buffer)) [mg/mL] | solubility ([3]; dimethyl sulfoxide, organic solvent or mixture, Dimethylsulfoxide, stirred overnight) [mg/mL] | solubility ([3]; organic solvent or mixture, Benzyl alcohol, stirred overnight) [mg/mL] | solubility ([3]; organic solvent or mixture, Ethanol, stirred overnight) [mg/mL] | solubility ([3]; organic solvent or mixture, Methanol, stirred overnight) [mg/mL] | solubility ([3]; saline or isotonic, 5% Dextrose, stirred overnight) [mg/mL] | solubility ([3]; saline or isotonic, Normal saline (0.9% NaCl), stirred overnight) [mg/mL] | solubility ([3]; simulated gastric fluid, 0.1N HCl) [mg/mL] | solubility ([3]; simulated gastric fluid, pH 1.1 (glycine HCl buffer)) [mg/mL] | solubility ([3]; Bacteriostatic water (0.9% benzyl alcohol), stirred overnight) [mg/mL] | solubility ([3]; Water for injection, stirred overnight) [mg/mL]
1 | C[N+]1(CC2CC2)CC[C@]23c4c5ccc(O)c4O[C@H]2C(=O)CC[C@@]3(O)[C@H]1C5.[Br-] (stereo partly drawn) [amorphous Compound 1, (R)-N-methylnaltrexone bromide] | enhanced water solubility |  |  |  |  |  |  |  |  |  |  |  |  |  |  |  |  | 
2 | C[N+]1(CC2CC2)CC[C@]23c4c5ccc(O)c4O[C@H]2C(=O)CC[C@@]3(O)[C@H]1C5.[Br-] (stereo partly drawn) [Form A, (R)-N-methylnaltrexone bromide] |  | 100 | 101 | 101 | 101 | 73.8 | 74.9 | 71.1 | > 170 | 85.5 | 6.1 | 2.5 | 61.3 | 59.7 | 76.6 | 70.1 | 86.5 | 73.5
